Numbers after ± are expanded uncertainties.
Assay: osmotic coefficient (dimensionless); mn = molality of the nth substance listed, in mol/kg
Settings: Liquid, vapor pressure osmometry

CCCCCn1cc[n+](C)c1.[Br-] [1-pentyl-3-methylimidazolium bromide] + O
osmotic coefficient
Settings | 298.15 K | 308.15 K | 318.15 K | 328.15 K
m1 = 0.0179 | 0.911 ± 0.037 | 0.987 ± 0.039 | 0.94 ± 0.038 | 1.01 ± 0.04
m1 = 0.025 | 0.925 ± 0.037 | 0.964 ± 0.039 | 0.924 ± 0.037 | 0.996 ± 0.04
m1 = 0.0301 | 0.906 ± 0.036 | 0.933 ± 0.037 | 0.912 ± 0.037 | 0.982 ± 0.039
m1 = 0.0518 | 0.878 ± 0.035 | 0.892 ± 0.036 | 0.895 ± 0.036 | 0.955 ± 0.038
m1 = 0.0722 | 0.861 ± 0.035 | 0.872 ± 0.035 | 0.882 ± 0.036 | 0.92 ± 0.037
m1 = 0.0904 | 0.852 ± 0.034 | 0.856 ± 0.035 | 0.871 ± 0.035 | 0.91 ± 0.037
m1 = 0.1155 | 0.826 ± 0.034 | 0.843 ± 0.034 | 0.857 ± 0.035 | 0.852 ± 0.034
m1 = 0.1697 | 0.808 ± 0.033 | 0.811 ± 0.033 | 0.831 ± 0.034 | 0.843 ± 0.034
m1 = 0.2113 | 0.793 ± 0.033 | 0.798 ± 0.033 | 0.816 ± 0.033 | 0.827 ± 0.034
m1 = 0.2308 | 0.785 ± 0.032 | 0.786 ± 0.032 | 0.813 ± 0.033 | 0.811 ± 0.033
m1 = 0.3311 | 0.745 ± 0.031 | 0.76 ± 0.032 | 0.776 ± 0.032 | 0.782 ± 0.032
m1 = 0.3787 | 0.726 ± 0.031 | 0.745 ± 0.031 | 0.762 ± 0.032 | 0.766 ± 0.032
m1 = 0.4716 | 0.704 ± 0.03 | 0.727 ± 0.031 | 0.749 ± 0.031 | 0.754 ± 0.031
m1 = 0.5627 | 0.694 ± 0.03 | 0.709 ± 0.03 | 0.72 ± 0.03 | 0.734 ± 0.031
m1 = 0.6532 | 0.679 ± 0.029 | 0.689 ± 0.03 | 0.697 ± 0.03 | 0.706 ± 0.03
m1 = 0.7246 | 0.669 ± 0.029 | 0.682 ± 0.03 | 0.692 ± 0.03 | 0.697 ± 0.03
m1 = 0.8353 | 0.657 ± 0.029 | 0.666 ± 0.029 | 0.68 ± 0.029 | 0.681 ± 0.029
m1 = 1.026 | 0.618 ± 0.028 | 0.637 ± 0.029 | 0.632 ± 0.028 | 0.649 ± 0.029
m1 = 1.509 | 0.583 ± 0.028 | 0.588 ± 0.028 | 0.594 ± 0.028 | 0.608 ± 0.028
m1 = 2.005 | 0.561 ± 0.027 | 0.565 ± 0.027 | 0.568 ± 0.027 | 0.594 ± 0.028

CCCCCCn1cc[n+](C)c1.[Br-] [3-hexyl-1-methyl-1H-imidazolium bromide] + O
osmotic coefficient
Settings | 298.15 K | 308.15 K | 318.15 K | 328.15 K
m1 = 0.0155 | 0.876 ± 0.035 | 0.889 ± 0.036 | 0.91 ± 0.037 | 0.935 ± 0.037
m1 = 0.021 | 0.869 ± 0.035 | 0.87 ± 0.035 | 0.876 ± 0.035 | 0.911 ± 0.037
m1 = 0.0305 | 0.854 ± 0.035 | 0.858 ± 0.035 | 0.866 ± 0.035 | 0.869 ± 0.035
m1 = 0.0467 | 0.835 ± 0.034 | 0.838 ± 0.034 | 0.848 ± 0.034 | 0.861 ± 0.035
m1 = 0.0633 | 0.815 ± 0.033 | 0.811 ± 0.033 | 0.816 ± 0.033 | 0.821 ± 0.033
m1 = 0.0819 | 0.761 ± 0.032 | 0.763 ± 0.032 | 0.8 ± 0.033 | 0.815 ± 0.033
m1 = 0.121 | 0.741 ± 0.031 | 0.742 ± 0.031 | 0.775 ± 0.032 | 0.79 ± 0.032
m1 = 0.158 | 0.703 ± 0.03 | 0.732 ± 0.031 | 0.754 ± 0.031 | 0.76 ± 0.032
m1 = 0.1845 | 0.708 ± 0.03 | 0.727 ± 0.031 | 0.742 ± 0.031 | 0.75 ± 0.031
m1 = 0.2503 | 0.67 ± 0.029 | 0.69 ± 0.03 | 0.702 ± 0.03 | 0.719 ± 0.03
m1 = 0.3312 | 0.65 ± 0.029 | 0.659 ± 0.029 | 0.672 ± 0.029 | 0.67 ± 0.029
m1 = 0.4111 | 0.602 ± 0.028 | 0.605 ± 0.028 | 0.625 ± 0.028 | 0.63 ± 0.028
m1 = 0.5114 | 0.554 ± 0.027 | 0.585 ± 0.028 | 0.589 ± 0.028 | 0.592 ± 0.028
m1 = 0.5898 | 0.54 ± 0.027 | 0.546 ± 0.027 | 0.555 ± 0.027 | 0.569 ± 0.027
m1 = 0.6829 | 0.517 ± 0.027 | 0.513 ± 0.027 | 0.537 ± 0.027 | 0.544 ± 0.027
m1 = 0.7428 | 0.488 ± 0.027 | 0.489 ± 0.027 | 0.509 ± 0.027 | 0.514 ± 0.027
m1 = 1.119 | 0.384 ± 0.027 | 0.397 ± 0.027 | 0.413 ± 0.027 | 0.429 ± 0.027
m1 = 1.686 | 0.312 ± 0.027 | 0.322 ± 0.027 | 0.352 ± 0.027 | 0.362 ± 0.027
m1 = 2.398 | 0.271 ± 0.028 | 0.292 ± 0.028 | 0.309 ± 0.027 | 0.328 ± 0.027

— the NIST ThermoML archive (doi:10.1016/j.jct.2008.07.011)
